14 compounds from US10450347B2, “Immunomodulators” (BRISTOL-MYERS SQUIBB COMPANY, priority 2015, dated 2019) can be followed below.

pIC50: −log10 of the molar value. Starred links: 1 amine or outer side, 2 acyl side, 3 side chain; linkers in the order of their positions; H or OH if unused. Positions of bridges follow the written chain, without caps; N, C: chain ends. Non-standard residues stand in square brackets, D forms with d. Residues, ends and D or L forms follow the SMILES beside them. Tyrψ(CN4)Ala = C[C@@H](C(=O)[*:2])n1nnnc1[C@H](Cc1ccc(O)cc1)N[*:1]; X1 = CCCC[C@@H](C(=O)[*:2])n1nnnc1[C@H](Cc1c[nH]c2ccccc12)N[*:1]; X3 = O=C(C[C@@H](CO)C(=O)[*:2])[C@H](Cc1c[nH]c2ccccc12)N[*:1]; X4 = CCCC[C@@H](C(=O)[*:2])n1nnnc1[C@H](Cc1csc2ccccc12)N[*:1]; X5 = C[C@@H](C(=O)[*:2])n1nnnc1[C@H](Cc1ccccc1)N[*:1]; Bta = N[C@@H](Cc1csc2ccccc12)C(=O)O; Hyp = O=C(O)[C@@H]1C[C@@H](O)CN1; NMeNle = CCCC[C@H](NC)C(=O)O; NMeA = CN[C@@H](C)C(=O)O; Orn = NCCC[C@H](N)C(=O)O; Dap = NC[C@H](N)C(=O)O; Sar = CNCC(=O)O

The target in one test is T1, PD-1-Ig/PD-L1-His (Homo sapiens, UniProt Q9NZQ7).
T1 construct: [hPD-L1(19-239)-tobacco vein mottling virus protease cleavage site (TVMV)-His]; made in house; host or cells: HEK293T cells
T1 sequence (Q9NZQ7 with tags, fused parts or gaps): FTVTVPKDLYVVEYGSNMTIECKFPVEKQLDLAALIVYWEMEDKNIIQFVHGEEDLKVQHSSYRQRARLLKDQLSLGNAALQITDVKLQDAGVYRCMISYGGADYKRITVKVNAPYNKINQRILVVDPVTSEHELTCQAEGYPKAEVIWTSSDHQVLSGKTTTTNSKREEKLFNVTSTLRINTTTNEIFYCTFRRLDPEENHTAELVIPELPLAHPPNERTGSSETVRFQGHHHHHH
In words: PD-1/PD-L1 Homogenous Time-Resolved Fluorescence (HTRF) binding assay. Particulars: inhibition of PD-1-Ig binding to PD-L1-TVMV-His; numeric values. The source says:
The ability of the macrocyclic peptides of the present disclosure to bind to PD-L1 was investigated using a PD-1/PD-L1 Homogenous Time-Resolved Fluorescence (HTRF) binding assay.
Homogenous Time-Resolved Fluorescence (HTRF) Assays of Binding of Soluble PD-1 to Soluble PD-L1. Soluble PD-1 and soluble PD-L1 refers to proteins with carboxyl-end truncations that remove the transmembrane-spanning regions and are fused to heterologous sequences, specifically the Fc portion of the human immunoglobuling G sequence (Ig) or the hexahistidine epitope tag (SEQ ID NO: 3) (His). All binding studies were performed in an HTRF assay buffer consisting of dPBS supplemented with 0.1% (w/v) bovine serum albumin and 0.05% (v/v) Tween-20. For the PD-1-Ig/PD-L1-His binding assay, inhibitors were pre-incubated with PD-L1-His (10 nM final) for 15 m in 4 μl of assay buffer, followed by addition of PD-1-Ig (20 nM final) in 1 μl of assay buffer and further incubation for 15 m. PD-L1 fusion proteins from either human, cynomologous macaques, mouse, or other species were used. HTRF detection was achieved using europium crypate-labeled anti-Ig monoclonal antibody (1 nM final) and allophycocyanin (APC) labeled anti-His monoclonal antibody (20 nM final). Antibodies were diluted in HTRF detection buffer and 5 μl was dispensed on top of binding reaction. The reaction was allowed to equilibrate for 30 minutes and signal (665 nm/620 nm ratio) was obtained using an EnVision fluorometer. Additional binding assays were established between PD-1-Ig/PD-L2-His (20 and 5 nM, respectively), CD80-His/PD-L1-Ig (100 and 10 nM, respectively) and CD80-His/CTLA4-Ig (10 and 5 nM, respectively). Binding/competition studies between biotinylated Compound No. 71 and human PD-L1-His were performed as follows. Macrocyclic peptide inhibitors were pre-incubated with PD-L1-His (10 nM final) for 60 minutes in 4 μl of assay buffer followed by addition of biotinylated Compound No. 71 (0.5 nM final) in 1 μl of assay buffer. Binding was allowed to equilibrate for 30 minutes followed by addition of europium crypated labeled Streptavidin (2.5 pM final) and APC-labeled anti-His (20 nM final) in 5 μl of HTRF buffer. The reaction was allowed to equilibrate for 30 m and signal (665 nm/620 nm ratio) was obtained using an EnVision fluorometer.
Recombinant Proteins. Carboxyl-truncated human PD-1 (amino acids 25-167) with a C-terminal human Ig epitope tag [hPD-1 (25-167)-3S-IG] and human PD-L1 (amino acids 18-239) with a C-terminal His epitope tag [hPD-L1(19-239)-tobacco vein mottling virus protease cleavage site (TVMV)-His] were expressed in HEK293T cells and purified sequentially by recombinant Protein A affinity chromatography and size exclusion chromatography. Human PD-L2-His (Sino Biologicals), CD80-His (Sino Biologicals), CTLA4-Ig (RnD Systems) were all obtained through commercial sources.
(In general: Time-resolved FRET reads energy transfer from a long-lived donor to a nearby acceptor.)
What is called pIC50 is the IC50 on a negative log10 scale, so that one unit is a factor of ten. Higher therefore signals a small IC50. In turn, `CCCC[C@H]1C(=O)N(C)[C@@H](CCCC)C(=O)N[C@@H](CCCNC(=N)N)C(=O)N[C@H](C(=O)NCC(N)=O)CSCC(=O)N[C@@H](Cc2ccccc2)c2nnnn2[C@@H](C)C(=O)N[C@@H](CC(N)=O)C(=O)N2CCC[C@H]2C(=O)N[C@@H](Cc2cnc[nH]2)C(=O)N[C@@H](CC(C)C)C(=O)N(C)CC(=O)N[C@@H](Cc2c[nH]c3ccccc23)C(=O)N[C@@H](CO)C(=O)N[C@@H](Cc2c[nH]c3ccccc23)C(=O)N1C` (single isomer, unassigned) [Example 1002] showed a negative logarithm of the IC50 (pIC50) of 6.70. Consider `CCCC[C@H]1C(=O)N(C)[C@@H](CCCC)C(=O)N[C@@H](CCCNC(=N)N)C(=O)N[C@H](C(=O)NCC(N)=O)CSCC(=O)N[C@@H](Cc2ccc(O)cc2)c2nnnn2[C@@H](C)C(=O)N[C@@H](CC(N)=O)C(=O)N2CCC[C@H]2C(=O)N[C@@H](Cc2cnc[nH]2)C(=O)N[C@@H](CC(C)C)C(=O)N(C)CC(=O)N[C@@H](Cc2c[nH]c3ccccc23)C(=O)N[C@@H](CO)C(=O)N[C@@H](Cc2c[nH]c3ccccc23)C(=O)N1C` [Example 1012] ({CH2CO}-[Tyrψ(CN4)Ala]NPHL[Sar]WSW[NMeNle][NMeNle]RCG-NH2; thioether N-13), for which the negative logarithm of the IC50 (pIC50) is 7.52.

The test is the same for the next values; noted with them: inhibition of PD-1-Ig binding to PD-L1-TVMV-His; range classes.
Compound `CCCC[C@H]1C(=O)N(C)[C@@H](CCCC)C(=O)N[C@@H](CCCNC(=N)N)C(=O)N[C@H](C(=O)NCC(N)=O)CSCC(=O)N[C@@H](Cc2ccccc2)c2nnnn2[C@@H](C)C(=O)N[C@@H](CC(N)=O)C(=O)N2CCC[C@H]2C(=O)N[C@@H](Cc2cnc[nH]2)C(=O)N[C@@H](CC(C)C)C(=O)N(C)CC(=O)N[C@@H](Cc2c[nH]c3ccccc23)C(=O)N[C@@H](CO)C(=O)N[C@@H](Cc2c[nH]c3ccccc23)C(=O)N1C` (single isomer, unassigned) [Example 1001] gave a pIC50 of 5.00 to 7.00. As for `CCCC[C@@H]1C(=O)N[C@@H](CCCNC(=N)N)C(=O)N[C@H](C(=O)NCC(N)=O)CSCC(=O)N[C@@H](Cc2ccccc2)c2cnnn2[C@@H](C)C(=O)N[C@H](CC(N)=O)C(=O)N2CCC[C@H]2C(=O)N[C@@H](Cc2cnc[nH]2)C(=O)N[C@@H](CC(C)C)C(=O)N(C)CC(=O)N[C@@H](Cc2c[nH]c3ccccc23)C(=O)N[C@@H](CO)C(=O)N[C@@H](Cc2c[nH]c3ccccc23)C(=O)N(C)[C@@H](CCCC)C(=O)N1C` (single isomer, unassigned) [Example 1003], the pIC50 is 5.00 to 7.00. Consider `CCCC[C@@H]1C(=O)N[C@@H](CCCNC(=N)N)C(=O)N[C@H](C(=O)NCC(N)=O)CSCC(=O)N[C@@H](Cc2ccccc2)c2cnnn2[C@@H](C)C(=O)N[C@H](CC(N)=O)C(=O)N2CCC[C@H]2C(=O)N[C@@H](Cc2cnc[nH]2)C(=O)N[C@@H](CC(C)C)C(=O)N(C)CC(=O)N[C@@H](Cc2c[nH]c3ccccc23)C(=O)N[C@@H](CO)C(=O)N[C@@H](Cc2c[nH]c3ccccc23)C(=O)N(C)[C@@H](CCCC)C(=O)N1C` (single isomer, unassigned) [Example 1004], for which the pIC50 was 5.00 to 7.00. On the same count and under the same terms, then `CCCC[C@H]1C(=O)N(C)CC(=O)N[C@@H](CC(=O)O)C(=O)N[C@@H](C(C)C)C(=O)N(C)[C@@H](Cc2ccccc2)C(=O)N[C@@H](Cc2ccc(O)cc2)C(=O)N(C)CC(=O)N[C@@H](Cc2c[nH]c3ccccc23)C(=O)N[C@@H](Cc2ccc(O)cc2)C(=O)N[C@@H](CC(C)C)C(=O)N[C@H](C(=O)NCC(N)=O)CSCC(=O)NC(Cc2ccccc2)c2nnnn2[C@@H](Cc2ccccc2)C(=O)N1C` (single isomer, unassigned) [Example 3001], with 5.00 to 7.00; and `CCCC[C@H]1C(=O)N(C)CC(=O)N[C@@H](CC(=O)O)C(=O)N[C@@H](C(C)C)C(=O)N(C)[C@@H](Cc2ccccc2)C(=O)N[C@@H](Cc2ccc(O)cc2)C(=O)N(C)CC(=O)N[C@@H](Cc2c[nH]c3ccccc23)C(=O)N[C@@H](Cc2ccc(O)cc2)C(=O)N[C@@H](CC(C)C)C(=O)N[C@H](C(=O)NCC(N)=O)CSCC(=O)NC(Cc2ccccc2)c2nnnn2[C@@H](Cc2ccccc2)C(=O)N1C` (single isomer, unassigned) [Example 3002], with 5.00 to 7.00. `CCCC[C@H]1C(=O)N[C@H](CCCNC(=N)N)C(=O)N[C@@H](C(=O)NCC(N)=O)CSCC(=O)N[C@@H](Cc2ccccc2)C(=O)N(C)[C@@H](C)C(=O)N[C@@H](CC(N)=O)C(=O)N2CCC[C@H]2C(=O)N[C@@H](Cc2cnc[nH]2)C(=O)N[C@@H](CC(C)C)C(=O)N(C)CC(=O)N[C@@H](Cc2c[nH]c3ccccc23)C(=O)N[C@@H](CO)C(=O)N[C@@H](Cc2cccc3ccccc23)c2nnnn2[C@@H](CCCC)C(=O)N1C` [Example 1005] had a pIC50 of 5.00 to 7.00. Still for that read-out and setting: the figure for `CCCC[C@H]1C(=O)NC(CCCNC(=N)N)C(=O)N[C@H](C(=O)NCC(N)=O)CSCC(=O)N[C@@H](Cc2ccc(O)cc2)C(=O)N(C)[C@@H](C)C(=O)N[C@@H](CC(N)=O)C(=O)N2CCC[C@H]2C(=O)N[C@@H](Cc2cnc[nH]2)C(=O)N[C@@H](CC(C)C)C(=O)N2CCC[C@H]2C(=O)N[C@@H](Cc2c[nH]c3ccccc23)C(=O)N[C@@H](CO)C(=O)N[C@@H](Cc2cccc3ccccc23)c2nnnn2[C@@H](CCCC)C(=O)N1C` (some centres unmarked) [Example 1006] is 5.00 to 7.00; for `CCCCC1C(=O)N(C)[C@@H](CCCC)C(=O)N[C@@H](CCCNC(=N)N)C(=O)N[C@H](C(=O)NCC(N)=O)CSCC(=O)N[C@@H](Cc2ccccc2)c2nnnn2[C@@H](C)C(=O)N[C@@H](CC(N)=O)C(=O)N2CCC[C@H]2C(=O)N[C@@H](Cc2cnc[nH]2)C(=O)N[C@@H](CC(C)C)C(=O)N(C)CC(=O)N[C@@H](Cc2c[nH]c3ccccc23)C(=O)N[C@@H](CO)C(=O)N[C@@H](Cc2cccc3ccccc23)c2nnnn21` (some centres unmarked) [Example 1007] it is 5.00 to 7.00; for `CCCC[C@H]1C(=O)N(C)[C@@H](CCCC)C(=O)N[C@@H](CCCNC(=N)N)C(=O)N[C@H](C(=O)NCC(N)=O)CSCC(=O)N[C@@H](Cc2ccccc2)c2nnnn2[C@@H](C)C(=O)N[C@@H](CC(N)=O)C(=O)N2CCC[C@H]2C(=O)N[C@@H](Cc2cnc[nH]2)C(=O)N[C@@H](CC(C)C)C(=O)N2CCC[C@H]2C(=O)N[C@@H](Cc2c[nH]c3ccccc23)C(=O)N[C@@H](CO)C(=O)N[C@@H](Cc2csc3ccccc23)C(=O)N1C` [Example 1010] ({CH2CO}-[X5]NPHLPWS[Bta][NMeNle][NMeNle]RCG-NH2; thioether N-13) it is 5.00 to 7.00. The compound `CCCC[C@H]1C(=O)N[C@@H](CCCN)C(=O)N[C@H](C(=O)NCC(N)=O)CSCC(=O)N[C@@H](Cc2ccc(O)cc2)C(=O)N(C)[C@@H](C)C(=O)N[C@@H](CC(N)=O)C(=O)N2CCC[C@H]2C(=O)N[C@@H](Cc2cnc[nH]2)C(=O)N[C@@H](CC(C)C)C(=O)N2C[C@H](O)C[C@H]2C(=O)N[C@@H](Cc2c[nH]c3ccccc23)C(=O)C[C@@H](CO)C(=O)N[C@@H](Cc2csc3ccccc23)c2nnnn2[C@@H](CCCC)C(=O)N1C` [Example 1013] ({CH2CO}-Y[NMeA]NPHL[Hyp][X3][X4][NMeNle][Orn]CG-NH2; thioether N-12) had a pIC50 of 7.00 to 8.00. For `CCCC[C@H]1C(=O)N(C)[C@@H](CCCC)C(=O)N[C@@H](CCCN)C(=O)N[C@H](C(=O)NCC(N)=O)CSCC(=O)N[C@@H](Cc2ccc(O)cc2)c2nnnn2[C@@H](C)C(=O)N[C@@H](CC(N)=O)C(=O)N2CCC[C@H]2C(=O)N[C@@H](CN)C(=O)N[C@@H](CC(C)C)C(=O)N2C[C@H](O)C[C@H]2C(=O)N[C@@H](Cc2c[nH]c3ccccc23)C(=O)N[C@@H](CO)C(=O)N[C@@H](Cc2c[nH]c3ccccc23)C(=O)N1C` [Example 1014] ({CH2CO}-[Tyrψ(CN4)Ala]NP[Dap]L[Hyp]WSW[NMeNle][NMeNle][Orn]CG-NH2; thioether N-13), the pIC50 was 8.00 to 8.30. The compound `CCCC[C@H]1C(=O)N[C@@H](CCCN)C(=O)N[C@H](C(=O)NCC(N)=O)CSCC(=O)N[C@@H](Cc2ccc(O)cc2)C(=O)N(C)[C@@H](C)C(=O)N[C@@H](CC(N)=O)C(=O)N2CCC[C@H]2C(=O)N[C@@H](Cc2cnc[nH]2)C(=O)N[C@@H](CC(C)C)C(=O)N2C[C@H](O)C[C@H]2C(=O)N[C@@H](Cc2c[nH]c3ccccc23)C(=O)N[C@@H](CO)C(=O)N[C@@H](Cc2c[nH]c3ccccc23)c2nnnn2[C@@H](CCCC)C(=O)N1C` [Example 1050] ({CH2CO}-Y[NMeA]NPHL[Hyp]WS[X1][NMeNle][Orn]CG-NH2; thioether N-13) had a pIC50 of 5.00 to 7.00.
